Reference: paper PMC5369532, “NMR-filtered virtual screening leads to non-metal chelating metallo-β-lactamase inhibitors” (Chemical Science, 2016)
Entries after “also recorded” stand apart in the source; their conditions may differ. Like-named read-outs stand apart in the source and are kept apart here.

Key:
[1] = biological target: T1, VIM-2 (Escherichia coli, UniProt Q5U7L7); assay: biochemical; format: biochemical; conditions: for differences between the inhibitory activity with or without excess Zn(II): 0 μM, 1 μM and 100 μM Zn(II)
T1 construct: made in house; host or cells: Escherichia coli
Method: (§1) Except where noted, recombinant forms of NDM-1, VIM-2, SPM-1, IMP-1, and BcII MBLs were produced in Escherichia coli and assays were carried out as described previously10. The IC50 values of all the compounds for VIM-2 were determined using […]
concentrations (0 μM, 1 μM, and 100 μM, see Fig. S8). The selectivity profiles of […]
as described above. The inhibitory activities of these compounds against CphA (B2 […]
MBL; IMP, Imipenemase; NDM, New Delhi MBL; TEM-1: Temomeira-type 1 […]
b The enzyme concentrations of the purified proteins were determined by measuring Abs@280nm using a NanoDrop (ThermoFisher) spectrometer and calculated molar extinction coefficient for each sample; concentrations of diluted solutions used in the assay were calculated from the original concentration. […]
negative controls. These were tested in same assay conditions but at 2mM instead of 100uM compound concentration. […]

[2] = biological target: T2, di-Zn(II) VIM-2 (Escherichia coli, UniProt Q5U7L7); format: binding; conditions: 50 μM enzyme, 50 μM Zn(II), 50 μM compound, 50 mM Tris-D11 pH 7.5
T2 construct: made in house
Method: (§2) Except where noted, recombinant forms of NDM-1, VIM-2, SPM-1, IMP-1, and BcII MBLs were produced in Escherichia coli and assays were carried out as described […]
(§3) previously10. […]
(§4) Nuclear Magnetic Resonance (NMR) spectra were recorded using a Bruker AVIII 600 MHz NMR spectrometer equipped with a BB-19F/1H Prodigy N2 cryoprobe using 5 mm diameter NMR tubes (Norell). Typical experimental parameters for Carr-Purcell-Meiboom-Gill (CPMG) NMR spectroscopy were: total echo time, 40 ms; […]
(§5) The PROJECT-CPMG sequence
(§6) (90°x−[τ−180°y−τ−90°y−τ−180°y−τ]n−acq) was applied. 15 Water suppression was achieved by pre-saturation. Data were processed with Bruker 3.1 software. Prior to […]
(§7) Fourier transformation, data were multiplied with an exponential function with 0.5 Hz […]
(§8) line broadening. […]

[3] = biological target: apo-VIM-2 (Escherichia coli, UniProt Q5U7L7); format: binding; conditions: 50 μM apo enzyme, 50 μM compound, 50 mM Tris-D11 pH 7.5
Method: as §2, §3, §4, §5, §6, §7, §8

[4] = test system: class B MBLs; assay: Selectivity profile against class B MBLs (Fig. S21); format: biochemical
Method: The 1H NMR and 13C NMR spectra for compounds 34a, 34b, 34, 35a, 35b, and 35 […]
as §1
the FC-5 based assay10. […]
concentrations (0 μM, 1 μM, and 100 μM, see Fig. S8). The selectivity profiles of compounds of interest against other B1 MBLs including VIM-511, VIM-110, NDM-1, SPM-1, and BcII, and TEM-112 (class A SBL) were determined using the same method as described above. The inhibitory activities of these compounds against CphA (B2 MBL)13 and L1 (B3 MBL)14 were determined using meropenem and nitrocefin, […]
at 100 μM. The details regarding enzyme concentrations, substrate concentration are in […]
Nuclear Magnetic Resonance (NMR) spectra were recorded using a Bruker AVIII 600 MHz NMR spectrometer equipped with a BB-19F/1H Prodigy N2 cryoprobe using 5 mm diameter NMR tubes (Norell). Typical experimental parameters for Carr-Purcell-Meiboom-Gill (CPMG) NMR spectroscopy were: total echo time, 40 ms; relaxation delay, 2 s; and number of transients, 128. The PROJECT-CPMG sequence (90°x−[τ−180°y−τ−90°y−τ−180°y−τ]n−acq) was applied. 15 Water suppression was achieved by pre-saturation. Data were processed with Bruker 3.1 software. Prior to […]

[5] = biological target: VIM-1 (Pseudomonas aeruginosa, UniProt A0A0F7KYQ8); assay: biochemical; conditions: n ≥ 3
[6] = FC-5 based assay, n ≥ 3, read-out: IC50 (VIM-2)
[7] = FC-5 based assay, n ≥ 3, read-out: pIC50 (VIM-2) (converted)

IC50 [1, 6] [µM] | IC50 [5] [µM] | SMILES | also measured
993 | – | O=C(O)C1CC(c2ccccc2F)=NO1 (stereo not shown) [Compound 2] | –
> 1600 | – | NC(=O)N/N=C/c1cccc(C(=O)O)c1O [Compound 3] | –
557 | – | O=C(O)CC1CC(c2ccc(F)cc2)=NO1 (stereo not shown) [Compound 4] | –
> 1600 | – | CNCc1ccc(-c2cccc(C(=O)O)c2)o1 [Compound 5] | –
> 1600 | – | Cc1c/c(=N\c2ccccc2C(=O)O)n2ncnc2[nH]1 [Compound 8] | –
< 400 | – | Cc1cc(N/N=C/c2ccc(O)c(C(=O)O)c2)nc(-c2ccccc2O)n1 [Compound 20] | differences between the inhibitory activity with or without excess Zn(II) [1]: no obvious differences
349 | > 400 | O=C(O)c1cccc2c1C(=O)N(Cc1cccnc1)C2 [Compound 21] | –
> 400 | > 400 | COc1cc(CN2Cc3cccc(C(=O)O)c3C2=O)cc(OC)c1OC [Compound 26] | –
176 | > 400 | CN(C)c1ccc(CN2Cc3cccc(C(=O)O)c3C2=O)cc1 [Compound 27] | IC50 [1, 7]: 174 µM
60.3 | > 400 | CN(C)Cc1ccc(N2Cc3cccc(C(=O)O)c3C2=O)cc1 [Compound 34] | –
153 | > 400 | O=C(O)c1cccc2c1C(=O)N(Cc1cccs1)C2 [Compound 36] | –
> 400 | > 400 | O=C(O)c1cccc2c1C(=O)N(CC1CCCO1)C2 (stereo not shown) [Compound 38] | –
71.9 | > 400 | O=C(O)c1cccc2c1C(=O)N(CCc1ccccc1)C2 [Compound 39] | –
> 400 | > 400 | COCCCN1Cc2cccc(C(=O)O)c2C1=O [Compound 40] | –
24.6 | > 400 | C=CCC1c2cccc(C(=O)O)c2C(=O)N1c1ccc(F)cc1 (stereo not shown) [Compound 41] | –

Continued, compound first:

SMILES | IC50 [1, 6] [µM] | IC50 [5] [µM] | also measured
O=C(O)/C=C/C(=O)c1ccc(O)cc1 [Compound 1] | – | – | IC50 ([1]; IC50 (VIM-2)): 637 µM
O=C(Cc1ccc(Cl)cc1)c1ccc(O)cc1O [Compound 6] | 111 | – | differences between the inhibitory activity with or without excess Zn(II) [1]: no obvious differences; binding to di-Zn(II) VIM-2 by 1H CPMG NMR [2]: strong binding; also recorded: strong binder; binding to apo-VIM-2 by 1H CPMG NMR [3]: strong binding; also recorded: binds
NC(=S)N/N=C1\C(=O)Nc2c(C(=O)O)cccc21 [Compound 7] | 199 | – | differences between the inhibitory activity with or without excess Zn(II) [1]: no obvious differences; binding to di-Zn(II) VIM-2 by 1H CPMG NMR [2]: binding; also recorded: binds; binding to apo-VIM-2 by 1H CPMG NMR [3]: binding
Cc1ccc(-c2cn3nnc(C(=O)O)c3c(=O)[nH]2)cc1 [Compound 9] | 439 | – | –
Cc1oc2c(c1C(=O)O)C(=O)CC(c1ccccc1)C2 (stereo not shown) [Compound 10] | > 1600 | – | –
O=C(O)CCC(NS(=O)(=O)c1ccccc1)C(=O)O (stereo not shown) [Compound 11] | – | – | IC50 ([1]; IC50 (VIM-2)): 1110 µM; IC50 ([1]; pIC50 (VIM-2)): 1100 µM
O=C(O)C(=Cc1ccc(-c2ccc(Cl)cc2)o1)C(=O)O [Compound 12] | 87 | – | differences between the inhibitory activity with or without excess Zn(II) [1]: no obvious differences; inhibition of the tested class B MBLs (in words) [4]: broad-spectrum inhibition; binding to di-Zn(II) VIM-2 by 1H CPMG NMR [2]: strong binding; also recorded: binds strongly; binding to apo-VIM-2 by 1H CPMG NMR [3]: weak binding; also recorded: weakly
CN(C)c1ccc(/C=C/C(=O)c2ccccc2C(=O)O)cc1 [Compound 13] | 135 | – | differences between the inhibitory activity with or without excess Zn(II) [1]: no obvious differences; inhibition of the tested class B MBLs (in words) [4]: broad-spectrum inhibition; binding to di-Zn(II) VIM-2 by 1H CPMG NMR [2]: strong binding; also recorded: binds strongly; binding to apo-VIM-2 by 1H CPMG NMR [3]: weak binding; also recorded: weakly
O=C(O)C(Cc1ccc(O)cc1)NC1CCS(=O)(=O)C1 (stereo not shown) [Compound 14] | 669 | – | IC50 [1, 7]: 661 µM
CC(=O)Nc1ccc(S(=O)(=O)N2CCCC2C(=O)O)cc1 (stereo not shown) [Compound 15] | > 1600 | – | –
O=C(O)c1cccc(/C=N/N=C/c2cccc(C(=O)O)c2O)c1O [Compound 18] | 117 | – | binding to di-Zn(II) VIM-2 by 1H CPMG NMR [2]: binding; also recorded: binds; binding to apo-VIM-2 by 1H CPMG NMR [3]: binding; also recorded: binds
O=C(O)c1cccc2c1C(=O)N(Cc1ccncc1)C2 [Compound 22] | > 400 | > 400 | –
O=C(O)c1cccc2c1C(=O)N(Cc1ccc(F)cc1)C2 [Compound 23] | 250 | > 400 | –
O=C(O)c1cccc2c1C(=O)N(Cc1ccccc1F)C2 [Compound 24] | 47.1 | > 400 | –
COc1ccc(CN2Cc3cccc(C(=O)O)c3C2=O)cc1OC [Compound 25] | 320 | > 400 | IC50 [1, 7]: 316 µM
CC(c1ccccc1)N1Cc2cccc(C(=O)O)c2C1=O (stereo not shown) [Compound 28] | 168 | > 400 | IC50 [1, 7]: 166 µM
CC(c1ccncc1)N1Cc2cccc(C(=O)O)c2C1=O (stereo not shown) [Compound 29] | 229 | > 400 | –
O=C(O)c1cccc2c1C(=O)N(c1ccccc1)C2 [Compound 30] | 17.8 | > 400 | –
COc1ccccc1N1Cc2cccc(C(=O)O)c2C1=O [Compound 31] | 133 | > 400 | –
COc1cccc(N2Cc3cccc(C(=O)O)c3C2=O)c1 [Compound 32] | 39.3 | > 400 | –
O=C(O)c1cccc2c1C(=O)N(c1ccccc1Cl)C2 [Compound 33] | 74 | > 400 | –
O=C(O)c1cccc2c1C(=O)N(c1ccc(O)c(F)c1)C2 [Compound 35] | 7.7 | > 400 | –
O=C(O)c1cccc2c1C(=O)N(C1CCCC1)C2 [Compound 37] | 68.1 | > 400 | –
C=CCC1c2cccc(C(=O)O)c2C(=O)N1c1cccc(OC)c1 (stereo not shown) [Compound 42] | 20.3 | > 400 | –
C=CCC1c2cccc(C(=O)OC)c2C(=O)N1c1ccccc1 (stereo not shown) [Compound 43] | > 400 | > 400 | inhibitory activity against VIM-2 (in words) [1]: much lower inhibitory potency
C[C@H](CS)C(=O)N1CCC[C@H]1C(=O)O [L-Captopril, reference compound] | – | – | binding to di-Zn(II) VIM-2 by 1H CPMG NMR [2]: strong binding; also recorded: binds strongly; binding to apo-VIM-2 by 1H CPMG NMR [3]: very weak binding; also recorded: very weakly
